25 molecules from patent US8614215B2, “Quinoxaline inhibitors of phosphoinositide-3-kinases (PI3Ks)” (Merck Serono SA, priority 2007, dated 2013) can be followed below.

In this assay the test system is Human recombinant GST-PI3K. The assay can be described thus: PI3K induced-lipid phosphorylation, neomycin-SPA scintillation proximity assay. The format is biochemical. Particulars: for IC50: Human recombinant GST-PI3K, SPA. An excerpt:
The efficacy of compounds of the invention in inhibiting the PI3K induced-lipid phosphorylation may be tested in the following binding assay. The assay combines the scintillation proximity assay technology (SPA, Amersham) with the capacity of neomycin (a polycationic antibiotic) to bind phospholipids with high affinity and specificity. The Scintillation Proximity Assay is based on the properties of weakly emitting isotopes (such as ^3H, ^125I, ^33P). Coating SPA beads with neomycin allows the detection of phosphorylated lipid substrates after incubation with recombinant PI3K and radioactive ATP in the same well, by capturing the radioactive phospholipids to the SPA beads through their specific binding to neomycin.
To a 96 wells MTP containing 10 μL of the test compound of Formula (I) (solubilized in 10% DMSO; […]), the following assay components are added: 1) 10 μL of lipid micelles 2) 20 μL of Kinase buffer ([^33P]γATP162 μM/300 nCi, MgCl2 2.5 mM, DTT 2.5 mM, Na3VO4 25 uM in Hepes 40 mM, pH 7.4) and 3) 10 μL (100 ng) of Human recombinant GST-PI3K (in Hepes 40 mM, pH 7.4, ethylenglycol 4%). After incubation at room temperature for 120 minutes, with gentle agitation, the reaction is stopped by addition of 200 μL of a solution containing 250 μg of neomycin-coated PVT SPA beads, ATP 60 mM and EDTA 6.2 mM in PBS. The assay is further incubated at room temperature for 60 minutes with gentle agitation to allow binding of phospholipids to neomycin-SPA beads. After precipitation of the neomycin-coated PVT SPA beads for 5 minutes at 1500×g, radioactive PtdIns(3)P is quantified by scintillation counting in a Wallac MicroBeta™ plate counter.
The values indicated in Table I below refer to the IC50 (μM) with respect to PI3K, i.e. the amount necessary to achieve 50% inhibition of said target. Said values show a considerable inhibitory potency of quinoxaline compounds with regard to PI3K.

Consider `COC(=O)c1ccc(OC)cc1Nc1nc2ccccc2nc1NS(C)(=O)=O` [Example 3, methyl 4-methoxy-2-({3-[(methylsulfonyl)amino]quinoxalin-2-yl}amino)benzoate], for which the IC50 turned out to be 1.65 µM.

For `COc1cc(Nc2nc3ccccc3nc2NS(=O)(=O)c2cccnc2)cc(C(=O)N2CCN(C)CC2)c1` [Example 4, N-[3-({3-methoxy-5-[(4-methylpiperazin-1-yl)carbonyl]phenyl}amino)quinoxalin-2-yl]pyridine-3-sulfonamide], the IC50 turned out to be 3.34 µM. Still for that read-out and setting: the result for `COc1cc(Nc2nc3ccccc3nc2NS(=O)(=O)c2cccnc2)cc(C(=O)N2CCOCC2)c1` [Example 5, N-(3-{[3-methoxy-5-(morpholin-4-ylcarbonyl)phenyl]amino}quinoxalin-2-yl)pyridine-3-sulfonamide] reads 3.1 µM. The same measure, in the same setting: the result for `COc1cc(Nc2nc3ccccc3nc2NS(C)(=O)=O)cc(C(=O)N2CCOCC2)c1` [Example 6, N-(3-{[3-methoxy-5-(morpholin-4-ylcarbonyl)phenyl]amino}quinoxalin-2-yl)methanesulfonamide] reads 5.62 µM; that for `COc1ccc(CC2CCOCC2)c(Nc2nc3ccccc3nc2NS(=O)(=O)c2ccc(F)cc2)c1` [Example 10, 4-fluoro-N-(3-{[5-methoxy-2-(tetrahydro-2H-pyran-4-ylmethyl)phenyl]amino}quinoxalin-2-yl)benzenesulfonamide], 0.15 µM; that for `COc1ccc(CC2CCN(C)CC2)c(Nc2nc3ccccc3nc2NS(=O)(=O)c2cccnc2)c1` [Example 12, N-[3-({5-methoxy-2-[(1-methylpiperidin-4-yl)methyl]phenyl}amino)quinoxalin-2-yl]pyridine-3-sulfonamide], 0.045 µM. The same measure, in the same setting: the value for `COc1ccc(CC2CC(C)(C)N(C)C(C)(C)C2)c(Nc2nc3ccccc3nc2NS(=O)(=O)c2cn(C)cn2)c1` [Example 14, N-[3-({5-methoxy-2-[(1,2,2,6,6-pentamethylpiperidin-4-yl)methyl]phenyl}amino)quinoxalin-2-yl]-1-methyl-1H-imidazole-4-sulfonamide] was 0.42 µM; that for `COc1ccc(CC2C[C@H]3CC[C@@H](C2)N3C)c(Nc2nc3ccccc3nc2NS(=O)(=O)c2cn(C)cn2)c1` (stereo partly drawn) [Example 15, N-{3-[(5-methoxy-2-{[(1R,5S)-8-methyl-8-azabicyclo[3.2.1]oct-3-yl]methyl}phenyl)amino]quinoxalin-2-yl}-1-methyl-1H-imidazole-4-sulfonamide] was 0.11 µM.

Consider `COc1ccc(CC2CCN(C(C)=O)CC2)c(Nc2nc3ccccc3nc2NS(C)(=O)=O)c1` [Example 18], for which the IC50 amounted to 0.17 µM. Still for that read-out and setting: the result for `COc1ccc(CC2CCCCC2)c(Nc2nc3ccccc3nc2NS(=O)(=O)c2cccnc2)c1` [Example 19, N-(3-{[2-(cyclohexylmethyl)-5-methoxyphenyl]amino}quinoxalin-2-yl)pyridine-3-sulfonamide] reads 0.49 µM; that for `COc1ccc(CC2CCCCC2)c(Nc2nc3ccccc3nc2NS(=O)(=O)c2cn(C)cn2)c1` [Example 20, N-(3-{[2-(cyclohexylmethyl)-5-methoxyphenyl]amino}quinoxalin-2-yl)-1-methyl-1H-imidazole-4-sulfonamide], 0.45 µM. With `COc1ccc(CC2CCCCC2)c(Nc2nc3ccccc3nc2NS(C)(=O)=O)c1` [Example 21, N-(3-{[2-(cyclohexylmethyl)-5-methoxyphenyl]amino}quinoxalin-2-yl)methanesulfonamide], the “PI3K inhibition at single concentration” value (at 20 μM) stood at 68% at 20 μM. With `COc1ccc(CC2CCC(O)CC2)c(Nc2nc3ccccc3nc2NS(=O)(=O)c2cn(C)cn2)c1` (stereo not shown) [Example 22, N-[3-({2-[(4-hydroxycyclohexyl)methyl]-5-methoxyphenyl}amino)quinoxalin-2-yl]-1-methyl-1H-imidazole-4-sulfonamide], the IC50 came out at 0.018 µM. Take `COc1ccc(CC2CCCC2)c(Nc2nc3ccccc3nc2NS(=O)(=O)c2cn(C)cn2)c1` [Example 24, N-(3-{[2-(cyclopentylmethyl)-5-methoxyphenyl]amino}quinoxalin-2-yl)-1-methyl-1H-imidazole-4-sulfonamide]: the IC50 came out at 0.18 µM. Regarding `COc1ccc(CC2CCSCC2)c(Nc2nc3ccccc3nc2NS(=O)(=O)c2cn(C)cn2)c1` [Example 25, N-(3-{[5-methoxy-2-(tetrahydro-2H-thiopyran-4-ylmethyl)phenyl]amino}quinoxalin-2-yl)-1-methyl-1H-imidazole-4-sulfonamide], the IC50 amounted to 0.1 µM. Same read-out and setting: the result for `COc1ccc(CC2CCS(=O)(=O)CC2)c(Nc2nc3ccccc3nc2NS(=O)(=O)c2cn(C)cn2)c1` [Example 26, N-[3-({2-[(1,1-dioxidotetrahydro-2H-thiopyran-4-yl)methyl]-5-methoxyphenyl}amino)auinoxalin-2-yl]-1-methyl-1H-imidazole-4-sulfonamide] reads 0.03 µM; that for `COc1ccc(CCO)c(Nc2nc3ccccc3nc2NS(=O)(=O)c2cccnc2)c1` [Example 27, N-(3-{[2-(2-hydroxyethyl)-5-methoxyphenyl]amino}quinoxalin-2-yl)pyridine-3-sulfonamide], 0.04 µM; that for `COc1ccc(CCCO)c(Nc2nc3ccccc3nc2NS(=O)(=O)c2cn(C)cn2)c1` [Example 28, N-(3-{[2-(3-Hydroxypropyl)-5-methoxyphenyl]amino}quinoxalin-2-yl)-1-methyl-1H-imidazole-4-sulfonamide], 0.021 µM. Still for that read-out and setting: the result for `COc1ccc(C(CO)CO)c(Nc2nc3ccccc3nc2NS(=O)(=O)c2cn(C)cn2)c1` [Example 29, N-[3-({2-[2-Hydroxy-1-(hydroxymethyl)ethyl]-5-methoxyphenyl}amino)quinoxalin-2-yl]-1-methyl-1H-imidazole-4-sulfonamide] reads 0.55 µM; that for `COc1ccc(C(C)C)c(Nc2nc3ccccc3nc2NS(=O)(=O)c2cn(C)cn2)c1` [Example 30, N-{3-[(2-Isopropyl-5-methoxyphenyl)amino]quinoxalin-2-yl}-1-methyl-1H-imidazole-4-sulfonamide], 0.2 µM; that for `COc1ccc(CCCN(C)C)c(Nc2nc3ccccc3nc2NS(=O)(=O)c2cn(C)cn2)c1` [Example 31, N-[3-({2-[3-(Dimethylamino)propyl]-5-methoxyphenyl}amino)quinoxalin-2-yl]-1-methyl-1H-imidazole-4-sulfonamide], 0.011 µM. For the molecule `COc1ccc(CCO)c(Nc2nc3ccccc3nc2NS(=O)(=O)c2ccc(C(=O)N(C)C)cc2)c1` [Example 32, 4-{[(3-{[2-(2-Hydroxyethyl)-5-methoxyphenyl]amino}quinoxalin-2-yl)amino]sulfonyl}-N,N-dimethylbenzamide], the IC50 is 0.25 µM. Still for that read-out and setting: the value for `COc1ccc(CCO)c(Nc2nc3ccccc3nc2NS(=O)(=O)c2ccc(C)[n+]([O-])c2)c1` [Example 33, N-(3-{[2-(2-Hydroxyethyl)-5-methoxyphenyl]amino}quinoxalin-2-yl)-6-methylpyridine-3-sulfonamide 1-oxide] was 0.106 µM. Same read-out and setting: the value for `COc1ccc(CCO)c(Nc2nc3ccccc3nc2NS(=O)(=O)c2ccc(C#N)cc2)c1` [Example 34] was 0.022 µM; that for `COc1ccc(CCO)c(Nc2nc3ccccc3nc2NS(=O)(=O)c2cn(C)cn2)c1` [Example 35, N-(3-{[2-(2-Hydroxyethyl)-5-methoxyphenyl]amino}quinoxalin-2-yl)-1-methyl-1H-imidazole-4-sulfonamide] was 0.048 µM.
